Source: patent publication US6562609B1, “Cholesterol 25-hydroxylase” (Board of Regents, The University of Texas System, priority 1998, dated 2003)

Key:
[1] = tested on: cholesterol 25-hydroxylase; assay: Inhibition of cholesterol 25-hydroxylase by sterols in transfected cells; format: cell-based; conditions: for rank order of inhibition of cholesterol 25-hydroxylase: 3 μM [14C]cholesterol, cells treated with 2-hydroxypropyl-β-cyclodextrin; for decrease of enzyme activity: sterol 3 μM, equimolar with [14C]cholesterol (3 μM)
Procedure: (§1) Media from the transfected cells were collected and extracted with 8 ml of chloroform:methanol (2:1, v/v). The organic phase from each sample was taken to dryness under a stream of nitrogen and residues were dissolved in 40 μl aliquots of chloroform:methanol (2:1, v/v) and applied to 20×20 cm prescored LK5DF silica gel TLC plates (Whatman, Hillsboro, Oreg.) with preadsorbent layers. The plates were developed in ethyl acetate:toluene (4:6, v/v), and exposed to a Fuji BAS-MP phosphoimager plate overnight. Phosphoimage analysis was then performed on a Fuji BAS 1000 apparatus.
Inhibitor Studies—Transfection of CHOP cells was carried out as described above with the following exceptions. Cells were plated on Day 0 at a density of 150,000 cells/well in 6-well plates containing Medium C. On Day 1, cells were transfected with 2.7 μg of the indicated cholesterol 25-hydroxylase expression plasmid and 0.3 μg of pVA-1, using 12 μl of pfx-8 as transfection lipid. After 4 h, the lipid-DNA mixture was removed and 1.5 ml of Medium D was added. In certain experiments, this medium was aspirated and replaced on Day 2 with 1 ml per well of a 20 mg/ml solution of 2-hydroxypropyl-β-cyclodextrin (Sigma) in DMEM/Ham's F12 (1:1) medium and returned to the incubator. The cyclodextrin containing medium was replaced after 1-1.5 h with 1.5 ml of Medium D, and substrate and inhibitors were then added, each in a volume of 4.5 μl of ethanol. The concentration of [4-^14C]cholesterol substrate (specific activity=26.8 mCi/mmol) was 3 μM. Inhibitors were added to final concentrations of 3, 10 or 30 μM. Cells and/or cells plus medium were harvested at the indicated times, extracted, and the conversion of substrate into [4-^14C]25-hydroxycholesterol product was determined by thin layer chromatography as described above. The inhibitors used were cholesterol(5-cholesten-3β-ol), cholestanol (5α-cholestan-3β-ol), epicholesterol (5-cholesten-3α-ol), coprostanol(5β-cholestan-3β-ol), desmosterol(5,24-cholestadien-3β-ol), β-sitosterol(5-cholesten-24β-ethyl-3β-ol ), 25-hydroxycholesterol(cholest-5-ene-3β,25-diol), and 27-nor-25-oxocholesterol(27-nor-25-oxo-5-cholesten-3β-ol). All steroids were purchased from Steraloids Inc. (Wilton, N.H.), except cholesterol, which was from Sigma (St. Louis, Mo.).
We next tested the ability of different sterols to inhibit cholesterol 25-hydroxylase. In these experiments, 293 cells were transfected with a 25-hydroxylase cDNA, treated with 2-hydroxypropyl-β-cyclodextrin to remove endogenous cholesterol, and then incubated with 3 μM [^14C]cholesterol and the indicated concentrations of unlabeled inhibitor sterol. The rank order of inhibition for the […] sterols tested was desmosterol>cholestanol>25-hydroxycholesterol>epicholesterol>sitosterol>>coprostanol=25-oxo-27-nor-cholesterol. […] In the case of desmosterol (5,24-cholestadien-3β-ol), which can not be 25-hydroxylated due to the Δ^24 bond, this sterol appears to act as a true inhibitor.

[2] = target: T1, cholesterol 25-hydroxylase (Mus musculus, UniProt Q9Z0F5); assay: 25-hydroxylase activity in CHOP cells transfected with the murine cDNA; format: cell-based; conditions: treatment of transfected CHOP cells
T1 construct: a full-length mouse 25-hydroxylase cDNA fragment from plasmid pCMV-m25; expressed in transfected cells; host or cells: CHOP cells (CHO derivative expressing polyoma middle T antigen)
T1 sequence (Q9Z0F5 1-298): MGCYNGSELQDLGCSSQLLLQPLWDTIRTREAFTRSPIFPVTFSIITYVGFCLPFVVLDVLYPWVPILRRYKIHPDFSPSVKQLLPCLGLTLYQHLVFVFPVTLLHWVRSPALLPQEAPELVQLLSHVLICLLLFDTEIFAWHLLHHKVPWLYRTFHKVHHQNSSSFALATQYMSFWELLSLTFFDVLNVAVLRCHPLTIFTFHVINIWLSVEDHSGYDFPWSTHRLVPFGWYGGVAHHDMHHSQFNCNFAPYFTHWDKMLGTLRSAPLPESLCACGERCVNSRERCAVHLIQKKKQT
Procedure: (§2) Measurement of cholesterol 25-hydroxylase activity in whole cells—The transfection medium containing the cationic lipid was aspirated and replaced with 3 ml of Medium B (DMEM containing 10% newborn calf lipoprotein-poor serum, 100 u/ml penicillin, and 100 μg/ml streptomycin sulfate) supplemented with 5 μI of [4-^14C]cholesterol (56.6 mCi/mmol; 0.040 μCi/μl; New England Nuclear, Boston, Mass.). Cells were incubated for a further 60 h at 37° C. in an atmosphere of 8.8% CO2.
as §1
Inhibitor Studies—Transfection of CHOP cells was carried out as described above with the following exceptions. […] Cells and/or cells plus medium were harvested at the indicated times, extracted, and the conversion of substrate into [4-^14C]25-hydroxycholesterol product was determined by thin layer chromatography as described above. […]

[3] = target: T2, human 25-hydroxylase (Homo sapiens, UniProt O95992); assay: 25-hydroxylase activity in 293 cells transfected with the human cDNA; format: cell-based; conditions: treatment of transfected 293 cells
T2 construct: expressed in transfected cells; host or cells: human embryonic kidney 293 cells
T2 sequence (O95992 1-272): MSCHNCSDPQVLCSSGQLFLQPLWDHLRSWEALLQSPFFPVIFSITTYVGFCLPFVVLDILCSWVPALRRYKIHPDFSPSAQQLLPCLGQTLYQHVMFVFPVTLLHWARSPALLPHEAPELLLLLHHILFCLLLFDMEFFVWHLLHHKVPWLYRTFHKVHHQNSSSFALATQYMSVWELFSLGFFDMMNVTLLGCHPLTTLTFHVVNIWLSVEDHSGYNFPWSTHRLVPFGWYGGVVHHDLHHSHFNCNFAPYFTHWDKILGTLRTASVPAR
Procedure: as §2, §1
This EST was used to isolate a near full-length cDNA encoding the human 25-hydroxylase as described in Experimental Procedures. Transfection into 293 cells of the human cDNA cloned in a pCMV6 vector produced abundant 25-hydroxylase enzyme activity.

[4] = tested on: gene transcription; conditions: compared with 24- and 27-hydroxycholesterol, in vitro; cited from earlier work

CC(=O)CCC[C@@H](C)[C@H]1CC[C@H]2[C@@H]3CC=C4C[C@@H](O)CC[C@]4(C)[C@H]3CC[C@]12C [25-oxo-27-nor-cholesterol, 27-nor-25-oxo-5-cholesten-3β-ol]
rank order of inhibition of cholesterol 25-hydroxylase [1]: desmosterol>cholestanol>25-hydroxycholesterol>epicholesterol>sitosterol>>coprostanol=25-oxo-27-nor-cholesterol

CC(C)=CCC[C@@H](C)[C@H]1CC[C@H]2[C@@H]3CC=C4C[C@@H](O)CC[C@]4(C)[C@H]3CC[C@]12C [desmosterol, 5,24-cholestadien-3β-ol]
rank order of inhibition of cholesterol 25-hydroxylase [1]: desmosterol>cholestanol>25-hydroxycholesterol>epicholesterol>sitosterol>>coprostanol=25-oxo-27-nor-cholesterol
decrease of enzyme activity [1]: 30%

CC(C)CCC[C@@H](C)[C@H]1CC[C@H]2[C@@H]3CC=C4C[C@H](O)CC[C@]4(C)[C@H]3CC[C@]12C [epicholesterol, 5-cholesten-3α-ol]
rank order of inhibition of cholesterol 25-hydroxylase [1]: desmosterol>cholestanol>25-hydroxycholesterol>epicholesterol>sitosterol>>coprostanol=25-oxo-27-nor-cholesterol

2-hydroxypropyl-β-cyclodextrin
stimulation of 25-hydroxylase activity [2]: approximately 10 fold
stimulation of 25-hydroxylase activity [3]: approximately five-fold

CC(C)CCC[C@@H](C)[C@H]1CC[C@H]2[C@@H]3CC[C@H]4C[C@@H](O)CC[C@]4(C)[C@H]3CC[C@]12C [cholestanol, 5α-cholestan-3β-ol]
rank order of inhibition of cholesterol 25-hydroxylase [1]: desmosterol>cholestanol>25-hydroxycholesterol>epicholesterol>sitosterol>>coprostanol=25-oxo-27-nor-cholesterol

CC[C@H](CC[C@@H](C)[C@H]1CC[C@H]2[C@@H]3CC=C4C[C@@H](O)CC[C@]4(C)[C@H]3CC[C@]12C)C(C)C [sitosterol, 5-cholesten-24β-ethyl-3β-ol]
rank order of inhibition of cholesterol 25-hydroxylase [1]: desmosterol>cholestanol>25-hydroxycholesterol>epicholesterol>sitosterol>>coprostanol=25-oxo-27-nor-cholesterol

C[C@H](CCCC(C)(C)O)[C@H]1CC[C@H]2[C@@H]3CC=C4C[C@@H](O)CC[C@]4(C)[C@H]3CC[C@]12C [25-hydroxycholesterol, cholest-5-ene-3β,25-diol]
rank order of inhibition of cholesterol 25-hydroxylase [1]: desmosterol>cholestanol>25-hydroxycholesterol>epicholesterol>sitosterol>>coprostanol=25-oxo-27-nor-cholesterol
potency as regulator of gene transcription among natural oxysterols [4]: most potent regulator of gene transcription

CC(C)CCC[C@@H](C)[C@H]1CC[C@H]2[C@@H]3CC[C@@H]4C[C@@H](O)CC[C@]4(C)[C@H]3CC[C@]12C [coprostanol, 5β-cholestan-3β-ol]
rank order of inhibition of cholesterol 25-hydroxylase [1]: desmosterol>cholestanol>25-hydroxycholesterol>epicholesterol>sitosterol>>coprostanol=25-oxo-27-nor-cholesterol
decrease of enzyme activity [1]: did not inhibit the enzyme
